In patent US9603859B2, “Methods and products for increasing the rate of healing of tissue wounds” (BRIGHAM YOUNG UNIVERSITY, priority 2011, dated 2017):

How the values were obtained:
[1] = test system: primary human MSC cells; assay: Wound healing array q-PCR gene expression in mesenchymal stem cells; type: cell-based; settings: 8 hours treatment; CSA-13 at 5.0 μM
From the text: To determine the role of synthetic Ceragenins CSA-13, 44 and 90 in wound healing using mesenchymal stem cells (MSC), targeted mRNA panels from SABiosciences, and primary cells from Lonza were selected. Cells were purchased from Lonza.com and used fresh for each test using recommended media and culture conditions. After treatment, mRNA was isolated using Qiagen RNeasy Mini Kit®, and quantified using a NanoDrop 2000® by UV at 260 nm and 260/280 ratio for purity. cDNA was made using a First Strand Kit® from SABiosciences and processed for real time PCR using a kit from the same company for selected analysis of wound healing pathways. Results from q-PCR were uploaded to the SABiosciences site and to Ingenuity.com web site for analysis and pathway mapping. SABiosciences wound healing array plates (Cat# PAHS-121) and innate/acquired immune response plates (PAHS-052) were used. These arrays are fully validated when used as recommended. On day 1, primary human MSC cells were plated at 200,000 cells/well using 6-well plates with 3 ml of recommended media—hMSC Basal Medium+BulletKit (50 ml Growth Supplement, 10 ml L-Glutamine and 0.5 ml Gentamicin Sulfate Amphotercin-B) for 24 hours. Only early passages of cells were used, and never from frozen stock. On day 2, cells were treated with compounds dissolved in DMSO diluted 1:1000 or more to avoid effects of the solvent. Final testing concentration for CSA-13 was 5.0 μM. Treatment lasted 8 hours, and was followed by RNA isolation using QIAGEN RNeasy Mini Kit® (74104). RNA was measured at 260/280 nm using a NanoDrop 2000® and normalized to 2.4 ng per well, cDNA preparation was done using QIAGEN First Strand kit 330401. q-PCR was run as absolute quantification and threshold set at 0.1 units. Dendritic cells were plated at 500,000 cells/well using 24-well plate with 500 ul of Lonza LGM-3 Complete Growth Medium with and without compound. Treatment lasted 8 hours, and was followed by RNA isolation using QIAGEN RNeasy Mini Kit® (74104). RNA was measured at 260/280 nm using NanoDrop2000® and normalized to 2.4 ng per well, cDNA preparation was done using QIAGEN First Strand kit 330401. PCR was run as absolute quantification and threshold set at 0.1 units. For the wound healing array, strong upregulation of growth factors such as HB-EGF and cell migration factors such as MMP1 and CXCL2 were found, indicating a clear potential for CSA as a modulator of wound healing. Additional gene expression data is provided in Tables 1-3 for CSA-13, 44, and 90, respectively.

[2] = test system: Mixed-species biofilms of S. aureus and P. aeruginosa; assay: Mixed-species biofilm susceptibility, live/dead staining; type: cell-based; settings: biofilms grown in collagen-coated plates for 24 hours
[3] = test system: HaCaT migration; assay: HaCaT migration by ECIS (2D wound healing); type: cell-based, human
Protocol: Standard microdilution methods were used to determine minimum inhibitory concentration (MIC) and minimum bactericidal concentration (MBC) of test agents (peptides and peptide-mimics) against drug resistant Staphylococcus. aureus (TCH1516) and Pseudomonas. aeruginosa (PAO1). […] Cytotoxicity of test agents to human immortalized keratinocytes (HaCaTs) was assessed using 3-[4,5-dimethylthiazol-2-yl]-2,5-diphenyl tetrazolium bromide (MTT). Promotion of HaCaT migration by test agents was tested using electric cell-substrate impedance sensing (ECIS®), which induced 2D wound healing. The ability of test agents to stimulate angiogenesis was evaluated using matrigel-induced tube formation of human vein endothelial cells (HUVECs).

CCCCCCCCNCCC[C@@H](C)[C@H]1CC[C@H]2[C@@H]3[C@H](OCCCN)C[C@@H]4C[C@H](OCCCN)CC[C@]4(C)[C@H]3C[C@H](OCCCN)[C@]12C [CSA-13]
Fold Regulation ANGPT1 [1]: −2.0046
Fold Regulation CCL7 [1]: 1.6632
Fold Regulation CSF2 [1]: −2.4867
Fold Regulation CXCL1 [1]: 1.6181
Fold Regulation CXCL2 [1]: 4.873
Fold Regulation CXCL5 [1]: 2.0582
Fold Regulation F3 [1]: −3.3945
Fold Regulation F13A1 [1]: 2.0916
Fold Regulation FGF2 [1]: −1.633
Fold Regulation FGF10 [1]: 3.8659
Fold Regulation HBEGF [1]: 3.255
Fold Regulation IL2 [1]: 1.865
Fold Regulation IL4 [1]: −1.9944
Fold Regulation IL6 [1]: 3.1692
Fold Regulation IL10 [1]: −1.6166
Fold Regulation ITGA2 [1]: 3.5659
Fold Regulation ITGB3 [1]: −1.5243
Fold Regulation MMP1 [1]: 4.4172
Fold Regulation PLAT [1]: −2.1487
Fold Regulation PLAU [1]: 1.7849
Fold Regulation PLAUR [1]: 1.6286
Fold Regulation PTGS2 [1]: 3.3333
Fold Regulation VEGFA [1]: 1.7274
Fold Regulation VTN [1]: 2.0612

LL-37: a human peptide and positive control (LLGDFFRKSKEKIGKEFKRIVQRIKDFLRNLVPRTES; Antibacterial peptide LL-37; UniProt P49913 134-170, looked up)
anti-biofilm activity [2]: showed anti-biofilm activity
induction of wound healing [3]: induced wound healing
